The values below come from patent US20240417410A1, “TRICYCLIC COMPOUNDS FOR THE TREATMENT OF CANCER” (Hoffmann-La Roche Inc., priority 2023, published 2024).

For test [1], the target named is KRAS G12C-BRAF complex (Homo sapiens (Human), UniProt P01116+P62937, G12C). In words: KRAS-BRAF with CYPA (500 nM) interaction assay (TR-FRET, Example 136). The test is classed as biochemical. The note with it: KRAS G12C-BRAF disruption. For orientation: In TR-FRET formats the signal depends on donor and acceptor labels being close together.
KRAS G12C-BRAF complex, sequence (P01116-2 other isoform, or with tags, fused parts or gaps G12C): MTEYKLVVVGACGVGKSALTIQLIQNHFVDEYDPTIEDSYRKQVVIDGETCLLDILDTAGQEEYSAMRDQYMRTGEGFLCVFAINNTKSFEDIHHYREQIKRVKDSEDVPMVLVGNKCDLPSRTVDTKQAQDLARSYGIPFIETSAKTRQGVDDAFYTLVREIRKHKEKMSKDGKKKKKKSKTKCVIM
KRAS G12C-BRAF complex, sequence (P62937 whole entry): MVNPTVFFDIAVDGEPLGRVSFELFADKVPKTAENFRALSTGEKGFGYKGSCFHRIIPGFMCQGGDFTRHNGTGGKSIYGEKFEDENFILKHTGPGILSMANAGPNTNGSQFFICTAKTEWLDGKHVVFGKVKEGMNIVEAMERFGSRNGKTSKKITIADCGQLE
Test [2] deals with SW620 cells (KRAS G12V). In words: Cell viability assay (Cell Counting Kit-8, 3-day). It is filed as cell-based, human. The note with it: Homo sapiens, SW-620; SW620, 72 hrs incubation. In a few lines: (§1)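 Seed NCI-H358 5,000/well, AGS and SW620 2,000/well; overnight. Compound, 0.5% DMSO final, 72 hrs. CCK-8 2 hrs, OD450–OD650. IC50: 4-parameter fit.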
On the technique in general: Formazan colour is commonly taken as a measure of viable cells.

Test [3] deals with AGS cells (KRAS G12D). The test can be described thus: Cell viability assay (Cell Counting Kit-8, 3-day). To be noted: Homo sapiens, 72 h, 72 hrs incubation. The test is classed as cell-based, human. In a few lines:
as §1

Test [4] concerns NCI-H358 cells (KRAS G12C). In words: Cell viability assay (Cell Counting Kit-8, 3-day). The test is classed as cell-based, human. The note with it: Homo sapiens, NCI-H358, 72 h, NCI-H358, 72 hrs incubation. In a few lines: as §1
Test [5] has as its system phosphorylation of ERK, KRAS G12D in AGS cells. The test can be described thus: pERK inhibition assay. It is filed as cell-based. The note with it: Homo sapiens, AGS, 4 h. Summed up: (§2)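 NCI-H358 (KRAS G12C), AGS (G12D) and SW620 (G12V) cells plated overnight, then treated with compound for 4 h in 0.5% DMSO. After fixing and methanol permeabilisation, phospho-ERK was detected by in-cell ELISA (HRP/TMB, OD450). IC50 from a 4-parameter sigmoidal fit.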

The test system of test [6] is phosphorylation of ERK, KRAS G12V in SW620. The test can be described thus: pERK inhibition assay. It is filed as cell-based. The note with it: Homo sapiens, SW-620, 4 h, SW620 cells. In a few lines: as §2
In test [7] the test system is phosphorylation of ERK, KRAS G12C in NCI-H358 cells. The test can be described thus: pERK inhibition assay. The test is classed as cell-based. The note with it: Homo sapiens, NCI-H358, 4 h. In a few lines:
as §2

On to `CO[C@@H](C)c1ncc(N2CCN(CC(F)(F)F)CC2)cc1-c1c2c3cc(cc4c3n1CCO4)-c1csc(n1)C[C@H](NC(=O)[C@H]1[C@@H]3COC[C@@H]31)C(=O)N1CCC[C@H](N1)C(=O)OCC(C)(C)C2` (atropisomer, axis not shown; (M)) [Example 12, (1S,5R,6r)-N-[(7S,13S)-(20M)-20-[2-[(1S)-1-methoxyethyl]-5-[4-(2,2,2-trifluoroethyl)piperazin-1-yl]-3-pyridyl]-17,17-dimethyl-8,14-dioxo-15,24-dioxa-4-thia-9,21,30,31-tetrazahexacyclo[23.3.1.1^2,5.1^9,13.0^19,27.0^21,26]hentriaconta-1 (28),2,5 (31),19,25 (29),26-hexaen-7-yl]-3-oxabicyclo[3.1.0]hexane-6-carboxamide], for which the IC50 – broadly, the midpoint of a concentration-inhibition curve – stood at 12 nM in test [1]; 2 nM in test [2]; 25 nM in test [3]; 12.5 nM in test [4]; 2.2 nM in test [5]; 1.2 nM in test [6]. The same molecule came in with a half-inhibitory concentration (IC50) in test [7] of 3.8 nM.

With `CO[C@@H](C)c1ncc(N2CCN(CC(F)(F)F)CC2)cc1-c1c2c3cc(cc4c3n1CCC4)-c1csc(n1)C[C@H](NC(=O)[C@H]1[C@@H]3COC[C@@H]31)C(=O)N1CCC[C@H](N1)C(=O)OCC(C)(C)C2` (atropisomer, axis not shown; (M)) [Example 13, (1S,5R,6r)-N-[(7S,13S)-(20M)-20-[2-[(1S)-1-methoxyethyl]-5-[4-(2,2,2-trifluoroethyl)piperazin-1-yl]-3-pyridyl]-17,17-dimethyl-8,14-dioxo-15-oxa-4-thia-9,21,30,31-tetrazahexacyclo[23.3.1.1^2,5.1^9,13.0^19,27.0^21,26]hentriaconta-1 (28),2,5 (31),19,25 (29),26-hexaen-7-yl]-3-oxabicyclo[3.1.0]hexane-6-carboxamide], the 50% inhibitory concentration (IC50) in test [1] came out at 1.5 nM; in test [2], 0.7 nM; in test [3], 23 nM; in test [4], 6.4 nM; in test [5] it was 10.8 nM; in test [6], 1.5 nM. This molecule registered an IC50 in test [7] of 3 nM.

For the molecule `CO[C@@H](C)c1ncc(N2CCN(C)CC2)cc1-c1c2c3cc(cc4c3n1CCC4)-c1csc(n1)C[C@H](NC(=O)[C@H]1C[C@@H]1C(F)F)C(=O)N1CCC[C@H](N1)C(=O)OCC(C)(C)C2` (atropisomer, axis not shown; (M)) [Example 14, (1S,2S)-2-(difluoromethyl)-N-[(7S,13S)-(20M)-20-[2-[(1S)-1-methoxyethyl]-5-(4-methylpiperazin-1-yl)-3-pyridyl]-17,17-dimethyl-8,14-dioxo-15-oxa-4-thia-9,21,30,31-tetrazahexacyclo[23.3.1.1^2,5.1^9,13.0^19,27.0^21,26]hentriaconta-1 (28),2,5 (31),19,25 (29),26-hexaen-7-yl]cyclopropanecarboxamide], the concentration for half-maximal inhibition (IC50) came out at 22.2 nM in test [1]; 1 nM in test [2]; 17.5 nM in test [3]; 3.6 nM in test [4]; 5.6 nM in test [5]; 0.7 nM in test [6]. The molecule further displayed an IC50 in test [7] of 0.8 nM.

Turning to `CO[C@@H](C)c1ncc(N2CCN(C)CC2)cc1-c1c2c3cc(cc4c3n1CCC4)-c1csc(n1)C[C@H](NC(=O)[C@H]1[C@@H]3COC[C@@H]31)C(=O)N1CCC[C@H](N1)C(=O)OCC(C)(C)C2` (atropisomer, axis not shown; (M)) [Example 15, (1S,5R,6r)-N-[(7S,13S)-(20M)-20-[2-[(1S)-1-methoxyethyl]-5-(4-methylpiperazin-1-yl)-3-pyridyl]-17,17-dimethyl-8,14-dioxo-15-oxa-4-thia-9,21,30,31-tetrazahexacyclo[23.3.1.1^2,5.1^9,13.0^19,27.0^21,26]hentriaconta-1 (28),2,5 (31), 19,25 (29),26-hexaen-7-yl]-3-oxabicyclo[3.1.0]hexane-6-carboxamide], the IC50 in test [1] came to 11.9 nM; in test [2], 1.2 nM; in test [3], 15.9 nM; in test [4] it was 6.6 nM; in test [5], 5.2 nM; in test [6], 0.8 nM. Also, in test [7], the IC50 was found to be 0.7 nM.

On to `CO[C@@H](C)c1ncc(N2CCN(C)CC2)cc1-c1c2c3cc(cc4c3n1CCC4)-c1csc(n1)C[C@H](NC(=O)[C@@H]1C[C@H]1C1CC1)C(=O)N1CCC[C@H](N1)C(=O)OCC(C)(C)C2` (atropisomer, axis not shown; (M)) [Example 16, (1R,2S)-2-cyclopropyl-N-[(7S,13S)-(20M)-20-[2-[(1S)-1-methoxyethyl]-5-(4-methylpiperazin-1-yl)-3-pyridyl]-17,17-dimethyl-8,14-dioxo-15-oxa-4-thia-9,21,30,31-tetrazahexacyclo[23.3.1.1^2,5.1^9,13.0^19,27.0^21,26]hentriaconta-1 (28),2,5 (31),19,25 (29),26-hexaen-7-yl]cyclopropanecarboxamide], for which the IC50 in test [1] stood at 10.2 nM; in test [2], 1.6 nM; in test [3], 25.9 nM; in test [4] it was 7.3 nM; in test [5], 2.6 nM; in test [6] it was 2.8 nM. The molecule further gave an IC50 in test [7] of 4.6 nM.

Turning to `CO[C@@H](C)c1ncc(N2CCN(C)CC2)cc1-c1c2c3cc(cc4c3n1CC(F)(F)C4)-c1csc(n1)C[C@H](NC(=O)[C@H]1C[C@@H]1C)C(=O)N1CCC[C@H](N1)C(=O)OCC(C)(C)C2` (atropisomer, axis not shown; (M)) [Example 18, (1S,2S)-N-[(7S,13S)-23,23-difluoro-(20M)-20-[2-[(1S)-1-methoxyethyl]-5-(4-methylpiperazin-1-yl)-3-pyridyl]-17,17-dimethyl-8,14-dioxo-15-oxa-4-thia-9,21,30,31-tetrazahexacyclo[23.3.1.1^2,5.1^9,13.0^19,27.0^21,26]hentriaconta-1 (28),2,5 (31),19,25 (29),26-hexaen-7-yl]-2-methyl-cyclopropanecarboxamide], the IC50 in test [1] was 14.7 nM; in test [2] it was 2.9 nM; in test [3] it was 54.5 nM; in test [4], 18 nM; in test [5], 7.7 nM; in test [6] it was 7.4 nM. In test [7], this molecule displayed a half-inhibitory concentration (IC50) of 16.8 nM.

On to `CO[C@@H](C)c1ncc(N2CCN(CC(F)(F)F)CC2)cc1-c1c2c3cc(cc4c3n1CCC4)-c1csc(n1)C[C@H](NC(=O)[C@H]1C[C@@H]1C(F)F)C(=O)N1CCC[C@H](N1)C(=O)OCC(C)(C)C2` (atropisomer, axis not shown; (M)) [Example 21, (1S,2S)-2-(difluoromethyl)-N-[(7S,13S)-(20M)-20-[2-[(1S)-1-methoxyethyl]-5-[4-(2,2,2-trifluoroethyl)piperazin-1-yl]-3-pyridyl]-17,17-dimethyl-8,14-dioxo-15-oxa-4-thia-9,21,30,31-tetrazahexacyclo[23.3.1.1^2,5.1^9,13.0^19,27.0^21,26]hentriaconta-1 (28),2,5 (31),19,25 (29),26-hexaen-7-yl]cyclopropanecarboxamide], for which the half-inhibitory concentration (IC50) in test [1] amounted to 15 nM; in test [2], 1.9 nM; in test [3], 56.2 nM; in test [4], 15.3 nM; in test [5] it was 8.8 nM; in test [6], 1.4 nM. Also, the IC50 in test [7] worked out at 2.1 nM.
